The record followed here is US20260297042A1, “BIARYLAMIDE DERIVATIVES AND THEIR USE AS PKMYT1 INHIBITORS” (CANCER RESEARCH TECHNOLOGY LIMITED, priority 2023, published 2026).

The IC50 is the midpoint of a concentration-inhibition curve. A higher IC50 goes with weaker potency in that assay.

The structures appear in SMILES notation.

For one test, the target named is T1, Human PKMYT1 (Homo sapiens, UniProt Q99640).
T1 construct: Human PKMYT1 75-362 was cloned as a TEV cleavable 6xHis fusion; 6xHis (TEV cleavable) (cleaved yes); made in house; host or cells: bacterial cells
T1 sequence (Q99640 75-362): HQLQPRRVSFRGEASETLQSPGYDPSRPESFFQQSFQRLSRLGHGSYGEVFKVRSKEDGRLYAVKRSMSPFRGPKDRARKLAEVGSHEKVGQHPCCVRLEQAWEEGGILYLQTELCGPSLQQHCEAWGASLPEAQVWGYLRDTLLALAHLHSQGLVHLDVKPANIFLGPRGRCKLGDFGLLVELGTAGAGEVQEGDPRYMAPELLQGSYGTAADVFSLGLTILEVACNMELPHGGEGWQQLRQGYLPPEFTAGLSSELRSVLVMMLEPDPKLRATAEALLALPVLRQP
The test can be described thus: PKMYT1 biochemical ADP-Glo enzymatic assay. Particulars: PKMYT1 kinase domain 15 nM; ADP-Glo; banded values. The essentials: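 Measures inhibition of PKMYT1 autonomous ATP hydrolysis: bacterially expressed human enzyme (75-362, tag cleaved) at 15 nM with 500 µM ATP for 60 min at 26 °C, then ADP-Glo Max detection. IC50s accepted only when replicates agreed within 3-fold and curve r2 exceeded 0.9.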

For another test, the target named is T2, WEE1 (Homo sapiens, UniProt P30291).
T2 construct: purchased Thermo Fisher PR7373A
The test can be described thus: Selectivity versus WEE1 assay (ADP-Glo enzymatic assay). It counts as biochemical. The settings on record: for IC50: WEE1 15 nM, ADP-Glo, banded values; for PKMYT1 vs. WEE1 selectivity: fold difference in selectivity for PKMYT1 over WEE1, banded. The essentials: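 Same format as the PKMYT1 assay: WEE1 at 15 nM final with 30 µM ATP, 60 min at 26° C, ADP-Glo luminescence detection, IC50 by dose-response fitting.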

T2 sequence (P30291 whole entry): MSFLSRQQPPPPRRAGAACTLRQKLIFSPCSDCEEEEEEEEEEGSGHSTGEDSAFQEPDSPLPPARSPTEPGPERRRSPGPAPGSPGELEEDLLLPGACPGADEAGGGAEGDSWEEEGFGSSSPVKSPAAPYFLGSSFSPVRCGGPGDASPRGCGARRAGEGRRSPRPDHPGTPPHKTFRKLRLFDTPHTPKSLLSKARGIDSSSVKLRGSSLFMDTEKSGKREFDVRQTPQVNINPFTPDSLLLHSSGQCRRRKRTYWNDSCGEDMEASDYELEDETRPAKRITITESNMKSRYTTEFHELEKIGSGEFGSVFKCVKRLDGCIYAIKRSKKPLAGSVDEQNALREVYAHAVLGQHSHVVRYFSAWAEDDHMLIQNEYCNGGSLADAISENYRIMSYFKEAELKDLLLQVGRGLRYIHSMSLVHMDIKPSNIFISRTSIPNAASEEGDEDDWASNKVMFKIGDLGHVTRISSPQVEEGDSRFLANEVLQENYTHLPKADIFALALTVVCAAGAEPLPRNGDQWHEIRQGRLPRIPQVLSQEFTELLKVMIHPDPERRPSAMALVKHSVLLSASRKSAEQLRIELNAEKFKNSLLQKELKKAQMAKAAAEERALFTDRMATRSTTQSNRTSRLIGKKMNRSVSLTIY

`Cc1nc2cc(Nc3ncc(C(=O)Nc4c(C)ccc(O)c4C)s3)ccc2o1` [BAA-445, N-(3-hydroxy-2,6-dimethylphenyl)-2-((2-methylbenzo[d]oxazol-5-yl)amino)thiazole-5-carboxamide]: at Human PKMYT1, the half-maximal inhibitory concentration (IC50) was in the range of 50 to 1000 nM. Moreover, at WEE1, the IC50 is 1000 to 11000 nM and the “PKMYT1 vs. WEE1 selectivity” value is “X (100-<1000 fold)”.
With `CCOC(=O)c1oc(Nc2ncc(C(=O)Nc3c(C)ccc(O)c3C)s2)nc1C` [BAA-446, ethyl 2-((5-((3-hydroxy-2,6-dimethylphenyl)carbamoyl)thiazol-2-yl)amino)-4-methyloxazole-5-carboxylate], on Human PKMYT1, the IC50 is 50 to 1000 nM. Besides, on WEE1, the 50% inhibitory concentration (IC50) is over 11000 nM and the “PKMYT1 vs. WEE1 selectivity” value is reported as “X (100-<1000 fold)”.
The matching figures for `Cc1ccc(O)c(C)c1NC(=O)c1cnc(Nc2onc(C)c2C(N)=O)s1` [BAA-448, 5-((5-((3-hydroxy-2,6-dimethylphenyl)carbamoyl)thiazol-2-yl)amino)-3-methylisoxazole-4-carboxamide]: under 50 nM, over 11000 nM and “Y (1000-5000 fold)”.
Compound `Cc1ccc(O)c(C)c1NC(=O)c1cnc(Nc2ncc(C(C)(C)C)o2)s1` [BAA-449, 2-((5-(tert-butyl)oxazol-2-yl)amino)-N-(3-hydroxy-2,6-dimethylphenyl)thiazole-5-carboxamide] came in with a half-inhibitory concentration (IC50) against Human PKMYT1 of 50 to 1000 nM. Also, at WEE1, the IC50 was over 11000 nM and the “PKMYT1 vs. WEE1 selectivity” value is recorded as “W (10-<100 fold)”.
For `Cc1ccc(O)c(C)c1NC(=O)c1cnc(Nc2n[nH]c3cc(F)cc(F)c23)s1` [BAA-452, 2-((4,6-difluoro-1H-indazol-3-yl)amino)-N-(3-hydroxy-2,6-dimethylphenyl)thiazole-5-carboxamide] the same measures were 50 to 1000 nM, over 11000 nM and “X (100-<1000 fold)”.
In the case of `Cc1ccc(O)c(C)c1NC(=O)c1cnc(Nc2n[nH]c3ccccc23)s1` [BAA-455, 2-((1H-indazol-3-yl)amino)-N-(3-hydroxy-2,6-dimethylphenyl)thiazole-5-carboxamide], the IC50 is 50 to 1000 nM at Human PKMYT1 and over 11000 nM against WEE1. For the same compound, at WEE1, the “PKMYT1 vs. WEE1 selectivity” value is listed as “X (100-<1000 fold)”.
As to `Cc1ccc(O)c(C)c1NC(=O)c1cnc(Nc2cccc(C3=NCCO3)c2)s1` [BAA-461, 2-((3-(4,5-dihydrooxazol-2-yl)phenyl)amino)-N-(3-hydroxy-2,6-dimethylphenyl)thiazole-5-carboxamide], the IC50 on Human PKMYT1 was under 50 nM; on WEE1, 1000 to 11000 nM. Further, at WEE1, the “PKMYT1 vs. WEE1 selectivity” value is listed as “X (100-<1000 fold)”.
Turning to `Cc1ccc(O)c(C)c1NC(=O)c1cnc(Nc2ccn(C)n2)o1` [BAA-462, N-(3-Hydroxy-2,6-dimethylphenyl)-2-((1-methyl-1H-pyrazol-3-yl)amino) oxazole-5-carboxamide], at Human PKMYT1, the IC50 is 50 to 1000 nM. In addition, at WEE1, the IC50 is over 11000 nM and the “PKMYT1 vs. WEE1 selectivity” value is “X (100-<1000 fold)”.
`Cc1ccc(O)c(C)c1NC(=O)c1nnc(Nc2ccn(C)n2)s1` [BAA-463, N-(3-Hydroxy-2,6-dimethylphenyl)-5-((1-methyl-1H-pyrazol-3-yl)amino)-1,3,4-thiadiazole-2-carboxamide]: the IC50 on Human PKMYT1 lay within 50 to 1000 nM. Further, on WEE1, the IC50 was over 11000 nM and the “PKMYT1 vs. WEE1 selectivity” value was “X (100-<1000 fold)”.
The compound `Cc1cn(C)nc1Nc1nnc(C(=O)Nc2c(C)ccc(O)c2C)s1` [BAA-465, 5-((1,4-dimethyl-1H-pyrazol-3-yl)amino)-N-(3-hydroxy-2,6-dimethylphenyl)-1,3,4-thiadiazole-2-carboxamide] yielded an IC50 at Human PKMYT1 of under 50 nM. Also, on WEE1, the IC50 was over 11000 nM and the “PKMYT1 vs. WEE1 selectivity” value is given as “Y (1000-5000 fold)”.
As to `Cc1ccc(O)c(C)c1NC(=O)c1nnc(Nc2ccn(C3CCC3)n2)s1` [BAA-466, 5-((1-cyclobutyl-1H-pyrazol-3-yl)amino)-N-(3-hydroxy-2,6-dimethylphenyl)-1,3,4-thiadiazole-2-carboxamide], the IC50 on Human PKMYT1 is 50 to 1000 nM; against WEE1, over 11000 nM. The “PKMYT1 vs. WEE1 selectivity” value on WEE1 is listed as “Y (1000-5000 fold)”.
Compound `Cc1ccc(O)c(Br)c1NC(=O)c1cnc(Nc2ccn(C)n2)s1` [BAA-468, N-(2-bromo-3-hydroxy-6-methyl-phenyl)-2-[(1-methylpyrazol-3-yl)amino]thiazole-5-carboxamide] had an IC50 on Human PKMYT1 of under 50 nM. On WEE1, the IC50 was 1000 to 11000 nM and the “PKMYT1 vs. WEE1 selectivity” value is “X (100-<1000 fold)”.
As for `CCc1c(O)ccc(C)c1NC(=O)c1cnc(Nc2ccn(C)n2)s1` [BAA-469, N-(2-Ethyl-3-hydroxy-6-methylphenyl)-2-((1-methyl-1H-pyrazol-3-yl)amino)thiazole-5-carboxamide], on Human PKMYT1, the IC50 was 50 to 1000 nM. In addition, at WEE1, the IC50 was over 11000 nM and the “PKMYT1 vs. WEE1 selectivity” value is “X (100-<1000 fold)”.
Take `Cn1cc(Br)c(Nc2ncc(C(=O)Nc3c(F)ccc(O)c3Cl)s2)n1` [BAA-472, 2-((4-Bromo-1-methyl-1H-pyrazol-3-yl)amino)-N-(2-chloro-6-fluoro-3-hydroxyphenyl)thiazole-5-carboxamide]: the IC50 against Human PKMYT1 is under 50 nM. On WEE1, the IC50 was over 11000 nM and the “PKMYT1 vs. WEE1 selectivity” value was “X (100-<1000 fold)”.
The matching figures for `Cc1c(O)ccc(Cl)c1NC(=O)c1cnc(Nc2ccn(C)n2)s1` [BAA-474, N-(6-Chloro-3-hydroxy-2-methyl-phenyl)-2-[(1-methylpyrazol-3-yl)amino]thiazole-5-carboxamide]: 50 to 1000 nM, over 11000 nM and “X (100-<1000 fold)”.
`CCc1c(O)ccc(C)c1NC(=O)c1cnc(Nc2ccn(CC(=O)N3CCCC3)n2)s1` [BAA-475, N-(2-ethyl-3-hydroxy-6-methylphenyl)-2-((1-(2-oxo-2-(pyrrolidin-1-yl)ethyl)-1H-pyrazol-3-yl)amino) thiazole-5-carboxamide] came in with an IC50 against Human PKMYT1 of under 50 nM. At WEE1, the IC50 is over 11000 nM and the “PKMYT1 vs. WEE1 selectivity” value is “Y (1000-5000 fold)”.
`Cc1ccc(O)c(Br)c1NC(=O)c1cnc(Nc2ccn(CC(=O)N3CCCC3)n2)s1` [BAA-476] showed an IC50 on Human PKMYT1 of under 50 nM. Also, at WEE1, the IC50 was in the range of 1000 to 11000 nM and the “PKMYT1 vs. WEE1 selectivity” value is given as “X (100-<1000 fold)”.
With `Cn1ccc(Nc2ncc(C(=O)Nc3c(Cl)ccc(O)c3F)s2)n1` [BAA-479, N-(6-Chloro-2-fluoro-3-hydroxyphenyl)-2-((1-methyl-1H-pyrazol-3-yl)amino)thiazole-5-carboxamide], the IC50 on Human PKMYT1 was 50 to 1000 nM; against WEE1 it was over 11000 nM. The “PKMYT1 vs. WEE1 selectivity” value on WEE1 was “W (10-<100 fold)”.
On to `Cn1ccc(Nc2ncc(C(=O)Nc3c(F)ccc(O)c3Cl)s2)n1` [BAA-480, N-(2-Chloro-6-fluoro-3-hydroxyphenyl)-2-((1-methyl-1H-pyrazol-3-yl)amino)thiazole-5-carboxamide], for which the results for the 50% inhibitory concentration (IC50) at Human PKMYT1 and against WEE1 were 50 to 1000 nM and over 11000 nM, respectively. On WEE1, the “PKMYT1 vs. WEE1 selectivity” value is recorded as “X (100-<1000 fold)”.
Take `O=C(Nc1c(Cl)ccc(O)c1F)c1cnc(Nc2ccn(CC(=O)N3CCCC3)n2)s1` [BAA-481, N-(6-Chloro-2-fluoro-3-hydroxy-phenyl)-2-[[1-(2-oxo-2-pyrrolidin-1-yl-ethyl)pyrazol-3-yl]amino]thiazole-5-carboxamide]: the concentration for half-maximal inhibition (IC50) on Human PKMYT1 was under 50 nM. On WEE1, the IC50 is over 11000 nM and the “PKMYT1 vs. WEE1 selectivity” value is “Y (1000-5000 fold)”.
Take `O=C(Nc1c(F)ccc(O)c1Cl)c1cnc(Nc2ccn(CC(=O)N3CCCC3)n2)s1` [BAA-482, N-(2-chloro-6-fluoro-3-hydroxyphenyl)-2-((1-(2-oxo-2-(pyrrolidin-1-yl)ethyl)-1H-pyrazol-3-yl)amino) thiazole-5-carboxamide]: on Human PKMYT1, the IC50 is under 50 nM. Also, on WEE1, the IC50 was over 11000 nM and the “PKMYT1 vs. WEE1 selectivity” value was “Y (1000-5000 fold)”.
For `Cc1ccccc1Nc1ncc(C(=O)Nc2c(C)ccc(O)c2C)s1` [BAA-483, N-(3-hydroxy-2,6-dimethylphenyl)-2-(o-tolylamino)thiazole-5-carboxamide], the IC50 against Human PKMYT1 lay within 50 to 1000 nM. On WEE1, the IC50 was over 11000 nM and the “PKMYT1 vs. WEE1 selectivity” value is on record as “X (100-<1000 fold)”.
The matching figures for `CCc1ccccc1Nc1ncc(C(=O)Nc2c(C)ccc(O)c2C)s1` [BAA-484, 2-((2-ethylphenyl)amino)-N-(3-hydroxy-2,6-dimethylphenyl)thiazole-5-carboxamide]: 50 to 1000 nM, over 11000 nM and “X (100-<1000 fold)”.
Compound `Cc1ccc(O)c(C)c1NC(=O)c1cnc(Nc2cccc3ncsc23)s1` [BAA-485, 2-(benzo[d]thiazol-7-ylamino)-N-(3-hydroxy-2,6-dimethylphenyl)thiazole-5-carboxamide] gave an IC50 at Human PKMYT1 of under 50 nM. Moreover, on WEE1, the IC50 is over 11000 nM and the “PKMYT1 vs. WEE1 selectivity” value is recorded as “X (100-<1000 fold)”.
